Key:
[1] = Study 1: pharmacokinetic drug-drug interaction of tipranavir 1350 mg BID and ritonavir 500 mg BID, plasma levels by HPLC; type: in vivo, human; conditions: for CLPO / Cmin / Css: median (range), n=10
Text: Twelve subjects were Caucasian and two were of African descent. Ten subjects completed all aspects of the study. Pharmacokinetic analyses were based on the results obtained in these subjects. […] Detection was by UV absorbance at 260 nm. […] Ritonavir and the internal standard (IS) were extracted from human plasma by liquid-liquid extraction with an ethyl acetate mixture.

[2] = Example 3: pharmacokinetic drug-drug interaction of tipranavir 1200 mg BID and delavirdine 400 mg TID, plasma levels by HPLC
Experimental: Baseline pharmacokinetic data for each drug were obtained under pharmacokinetic steady-state conditions following 7 days of dosing. Each drug was then co-administered for 10 days, at which time the pharmacokinetics of each was re-evaluated and compared with baseline data. […] All subjects were Caucasian. […] Pharmacokinetic analyses were based on results obtained in these subjects.
Detection was by UV absorbance at 260 nm.
Plasma samples were assayed for delavirdine concentrations using a validated, sensitive and specific isocratic high performance liquid chromatographic (HPLC) method: one for the upper concentration range, and one for the lower concentration range. […] The supernatant was mixed with buffer and directly injected. Chromatographic separation was achieved using a Brownlee cyano guard column and an analytical column, DuPont Zorbax® SB CN.
Treatment effects on pharmacokinetic parameters were assessed using Wilcoxon's Signed Rank Test.

[3] = Example 4: pharmacokinetic drug-drug interaction of tipranavir SEDDS 1250 mg BID and ritonavir oral solution 200 mg BID; type: in vivo, human; conditions: for CLPO / Cmin / Css: median (range)
[4] = Study 2: pharmacokinetic drug-drug interaction of tipranavir 600 or 900 mg BID and ritonavir 100-500 mg BID, plasma levels by HPLC; type: in vivo, human; conditions: for CLPO / Cmin / Css / AUC / Cmax / Tmax: median (range); for half-life / AUC / Cmax / Tmax: both sexes, human, plasma, oral; for half-life: harmonic mean (range), read-out: t½ (converted)
Experimental: Both groups received their assigned dose of tipranavir continuously throughout the study period. […] The pharmacokinetics of tipranavir when coadministered with ritonavir were evaluated and compared with baseline data, while the ritonavir data were compared to historical data. The study was conducted in 19 healthy volunteers (16 males and 3 females) with a mean age of 30 years (range, 19-52 years), height of 177.1 cm (range, 162.6-190.5 cm), and weight of 76.7 kg (range, 57.3-95.0 kg). Eighteen subjects were Caucasian […]. […] Pharmacokinetic analyses were based on those subjects completing the baseline evaluation and at least one period of concomitant drug administration. […] Detection was by UV absorbance at 260 nm. […] Ritonavir and the internal standard (IS) were extracted from human plasma by liquid-liquid extraction with an ethyl acetate mixture.

[5] = Table 1: tipranavir drug-drug interaction potential and routes of elimination of antiretrovirals; conditions: drug-drug interaction with tipranavir
[6] = Tipranavir 1350 mg BID + Ritonavir 500 mg BID
[7] = Tipranavir 1350 mg BID alone, steady state
[8] = tipranavir 1350 mg BID + ritonavir 500 mg BID vs tipranavir alone
[9] = Tipranavir SEDDS SEC 1250mg BID + Ritonavir Oral Solution 200mg BID, N=21
[10] = Tipranavir SEDDS SEC 1250mg BID alone, N=22
[11] = both sexes, human, plasma, oral, 1250 mg
[12] = Tipranavir 600 mg BID + RTV 100 mg BID, n=7
[13] = Tipranavir 600 mg BID + RTV 500 mg BID, n=7
[14] = Tipranavir 600 mg BID alone, n=7
[15] = Tipranavir 900 mg BID + RTV 100 mg BID, n=6
[16] = Tipranavir 900 mg BID + RTV 500 mg BID, n=6
[17] = Tipranavir 900 mg BID alone, n=6
[18] = 600 mg, Tipranavir 600 mg BID alone, n=7
[19] = 900 mg, Tipranavir 900 mg BID alone, n=6
[20] = tipranavir 600 mg BID + ritonavir 100 mg BID vs alone
[21] = tipranavir 600 mg BID + ritonavir 500 mg BID vs alone
[22] = tipranavir 900 mg BID + ritonavir 100 mg BID vs alone
[23] = tipranavir 900 mg BID + ritonavir 500 mg BID vs alone
[24] = delavirdine 400 mg TID + tipranavir 1200 mg BID vs delavirdine alone

## CCC[C@@]1(CCc2ccccc2)CC(O)=C([C@H](CC)c2cccc(NS(=O)(=O)c3ccc(C(F)(F)F)cn3)c2)C(=O)O1 (relative stereo) [Tipranavir, [R-(R*,R*)]-N-[3-[1-[5,6-Dihydro-4-hydroxy-2-oxo-6-(2-phenylethyl)-6-propyl-2H-pyran-3-yl]propyl]phenyl]-5-(trifluoromethyl)-2-pyridinesulfonamide]
[1]; [6]
  CLPO: 1.9 (1.2-3.8) L/h
  Cmin: 42 (12-84) µM
  Css: 100 (49-161) µM
[1]; Tipranavir 1350 mg BID + Ritonavir 500 mg BID, listed as tipranavir
  Cmin: 42 µM
[1]; [7]
  CLPO: 31 (11-100) L/h
  Cmin: 0.78 (0.34-1.42) µM
  Css: 6.1 (1.9-16.8) µM
[1]; [8]
  effect on tipranavir elimination half-life (t½): not accompanied by a prolongation of the elimination half-life
  increase of mean steady-state plasma tipranavir concentrations (Css): 12 fold
  increase of median tipranavir Cmax value in the presence of ritonavir: approximately 5.6 fold
  increase of median tipranavir Cmin values: 45 fold
[2]; tipranavir 1200 mg BID + delavirdine 400 mg TID, steady state
  effect of delavirdine on the pharmacokinetics of tipranavir: no effect
[3]; [9]
  CLPO: 1.19 (0.47-2.29) L/h
  Cmin: 62.1 (11.2-261) µM
  Css: 145 (76-371) µM
[3]; [10]
  CLPO: 12.7 (6.1-23.7) L/h
  Cmin: 0.82(0.30-2.20) µM
  Css: 13.6 (7.3-28.1) µM
[3]; [11]
  AUC: 163 µM·h
  Cmax: 56 µM
  Tmax: 2 h
[3]; both sexes, human, plasma, oral, 1250 mg, read-out: t½ (converted)
  half-life: 5.4 h
[3]; ritonavir 200 mg vs same dose (1250 mg BID) of tipranavir alone
  increase of tipranavir steady-state concentrations: more than 10 fold
[3]; tipranavir 1250 mg BID + ritonavir 200 mg BID
  effect on apparent terminal half-life of tipranavir: not significantly affected
[3]; tipranavir 1250 mg BID + ritonavir oral solution 200 mg BID vs tipranavir alone
  increase of median Cmax values: approximately 5 fold
[4]; [12]
  CLPO: 3.35 (2.44-6.07) L/h
  Cmin: 3.14 (1.61-12.8) µM
  Css: 24.8 (13.7-34.0) µM
  half-life: 2.3 h
  AUC: 297 µM·h
  Cmax: 56.8 µM
  Tmax: 2 h
[4]; [13]
  CLPO: 2.23 (1.02-4.79) L/h
  Cmin: 14.3 (4.70-32.5) µM
  Css: 37.2 (17.3-81.0) µM
  half-life: 3.7 h
  AUC: 446 µM·h
  Cmax: 78.6 µM
  Tmax: 2 h
[4]; Tipranavir 600 mg BID + RTV 500 mg BID, n=7, listed as tipranavir
  Cmin: 14.3 µM
[4]; [14]
  CLPO: 31.3 (17.3-88.8) L/h
  Cmin: 0.341 (0.165-0.929) µM
  Css: 2.70 (0.94-4.79) µM
[4]; [15]
  CLPO: 4.10 (2.45-7.86) L/h
  Cmin: 3.62 (1.98-6.95) µM
  Css: 30.6 (15.8-50.8) µM
  half-life: 1.9 h
  AUC: 368 µM·h
  Cmax: 68.9 µM
  Tmax: 3 h
[4]; [16]
  CLPO: 1.64 (1.00-2.82) L/h
  Cmin: 22.7 (9.91-63.2) µM
  Css: 76.1 (44.1-124.8) µM
  half-life: 3.5 h
  AUC: 913 µM·h
  Cmax: 148 µM
  Tmax: 2 h
[4]; [17]
  CLPO: 32.4 (20.8-53.1) L/h
  Cmin: 0.499 (0.160-1.150) µM
  Css: 3.88 (2.34-5.98) µM
[4]; [18]
  half-life: 3.6 h
  AUC: 32.5 µM·h
  Cmax: 11.3 µM
  Tmax: 2 h
[4]; [19]
  half-life: 4.2 h
  AUC: 46.5 µM·h
  Cmax: 14.6 µM
  Tmax: 2 h
[4]; extrapolated to a dose of ritonavir 30 mg BID
  predicted tipranavir concentration (target minimal therapeutic threshold): 1 µM
[4]; in combination with ritonavir 100 mg BID
  lowest median trough tipranavir concentration: exceeded 3 µM
[4]; ritonavir 100 mg BID vs same dose of tipranavir alone
  increase of plasma tipranavir concentrations: ~10 fold
[4]; [20]
  increase of median AUC values of tipranavir: approximately 9 fold
  increase of median Cmax values: 5 fold
  increase of median trough tipranavir concentrations: approximately 9 fold
[4]; [21]
  increase of median AUC values of tipranavir: approximately 14 fold
  increase of median Cmax values: 7 fold
  increase of median trough tipranavir concentrations: approximately 40 fold
[4]; tipranavir 600 mg BID with concomitant ritonavir
  effect on apparent terminal half-life of tipranavir: no prolongation of the apparent terminal half-life
[4]; tipranavir 600 mg with ritonavir 500 mg
  trough concentration: exceeding 3 µM
[4]; [22]
  increase of median AUC values of tipranavir: approximately 8 fold
  increase of median Cmax values: 5 fold
  increase of median trough tipranavir concentrations: approximately 7 fold
[4]; [23]
  increase of median AUC values of tipranavir: approximately 20 fold
  increase of median Cmax values: 10 fold
  increase of median trough tipranavir concentrations: approximately 45 fold
[4]; tipranavir 900 mg BID with concomitant ritonavir
  effect on apparent terminal half-life of tipranavir: No prolongation of the apparent terminal half-life

## CC(C)Nc1cccnc1N1CCN(C(=O)c2cc3cc(NS(C)(=O)=O)ccc3[nH]2)CC1 [Delavirdine]
[5]
  Potential for Clinically Significant Interaction: High (and unfavorable)
[2]; coadministration with tipranavir
  decrease of delavirdine AUC by tipranavir: > 95%
[2]; [24]
  median delavirdine AUC value, fold lower: more than 20 fold
  median trough delavirdine concentration, fold lower: more than 100 fold
